Reference: patent US20090233910A1, “Npy antagonists, preparation and uses” (CEREP, priority 2005, published 2009)
Marks after values point to notes of the source that are not given here.

Key:
[1] = target: T1, NPY Y1 receptor (Homo sapiens, UniProt P25929); assay: Binding test to the NPY Y1 receptor ([125I]-PYY, SK-N-MC cell suspension); details: SK-N-MC cells, 25 pM [125I]-PYY
T1 construct: host or cells: SK-N-MC cells (whole-cell suspension)
T1 sequence (P25929 1-384): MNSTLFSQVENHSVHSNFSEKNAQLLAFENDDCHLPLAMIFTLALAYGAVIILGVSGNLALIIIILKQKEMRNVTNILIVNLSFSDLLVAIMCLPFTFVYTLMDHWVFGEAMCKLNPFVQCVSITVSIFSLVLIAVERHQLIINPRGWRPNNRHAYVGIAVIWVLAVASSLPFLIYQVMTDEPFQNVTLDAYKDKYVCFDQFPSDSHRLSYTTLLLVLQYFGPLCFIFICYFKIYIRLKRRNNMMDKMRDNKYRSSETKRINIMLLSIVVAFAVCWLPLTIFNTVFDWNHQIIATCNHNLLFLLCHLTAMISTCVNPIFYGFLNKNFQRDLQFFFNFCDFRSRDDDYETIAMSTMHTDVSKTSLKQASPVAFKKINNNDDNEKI
Description: The SK-N-MC cells (ATCC HBT10) are cultured at 37° C. in MEM medium (minimum essential medium) free of phenol red (Invitrogen ref. 04194565M) containing 10% foetal calf serum (Invitrogen ref. 10270-106), 1% non-essential aminoacids (Invitrogen ref. 11140-035), 1% sodium pyruvate (Invitrogen ref. 11360-039), 1% glutamine (Invitrogen ref. 25030-032), 100 IU/ml of penicillin and 100 μg/ml of streptomycin (Invitrogen ref. 15140-122) in a humid atmosphere containing 5% CO2.
After aspirating the culture medium, the cells are washed with a phosphate buffer pH 7.4 (Invitrogen ref. 14190-094), then lifted with a Versene solution (Invitrogen, ref 15040-033). The cells are centrifuged at 500×g for 10 minutes at 4° C. then resuspended in a freeze buffer pH 7.4 containing 50 mM HEPES (N-2-hydroxyethylpiperazine-N′-2-ethanesulfonic acid), 145 mM sodium chloride, 2.6 mM calcium chloride, 1 mM magnesium chloride, 10 mM glucose, and 1 mg/ml bovine albumin. The cell suspension is aliquoted into twenty million cells per milliliter of buffer and stored at −70° C.
The cell suspension is incubated 2 hours at 37° C. in an incubation buffer pH 7.4 containing 50 mM HEPES, 2.5 mM calcium chloride, 1 mM magnesium chloride, 0.025% sodium azide, 1 mg/ml bovine albumin and 25 pM [^125I]-PYY (Perkin Elmer, NEX341). The reaction is halted by filtering through a GF/B filter pre-treated with 0.3% PEI, and washed three times with 1 ml of 50 mM TRIS buffer [tris(hydroxymethyl)aminomethane]/HCl, pH 7.4. The radioactivity deposited on the filter is measured by liquid scintillation count (TopCount, Packard). Non-specific binding is determined in the presence of 1 μM NPY (Bachem, H3322). Results are expressed as IC50 values in nM calculated by non-linear regression with 4 parameters.

[2] = target: T1, NPY Y1 receptor; assay: cAMP measurement test in SK-N-MC cells (shift of NPY dose-effect curves, forskoline-stimulated); format: cell-based; details: Schild analysis vs NPY, read-out: pA2 Y1 (converted)
Description: The SK-N-MC cells are cultured in 96-well plates. After aspirating the culture medium, the cells are washed with a phosphate buffer pH 7.4 (Invitrogen ref. 14190-094), then lifted with a Versene solution (Invitrogen, ref 15040-033). The cells are centrifuged at 500×g for 10 minutes at 4° C. They are resuspended in a stimulation buffer containing isobutyl-methyl-xanthine in sufficient concentration to inhibit the phosphodiesterases (Flashplate kit, Perkin Elmer). The tested compounds are added 10 minutes before depositing the NPY (Bachem, H3322) in variable concentration, then the 300 nM forskoline (Sigma, F6886). The cells are in cubated 1 hour at ambient temperature to allow cAMP production whose levels are measured using the Flashplate method after 2 hours incubation with the cAMP tracer [^125I]. The results are expressed in pA2 form observing the displacement of NPY dose-effect curves in the absence and presence of increasing concentrations of test compound [Schild, 1949, pAx and competitive drug antagonism, Br. J. Pharmacol., 4, 277-280].

[3] = test system: fasting mice; assay: Food intake by fasting mice; format: in vivo; details: fasting male OF1 mice, 30 mg/kg ip
Description: The day before the experiment at 16 h, male OF1 mice (Charles River, France) with body weight varying between 20 and 25 g, are left to fast in individual cages with unlimited drink water. On the day of the experiment, at 9 h30±15 min, a control batch of 10 mice was given the solvent (5% DMSO, Merck, 1.02931.1000, 5% cremophor EL, Sigma C-5135, physiological saline solution to complete to volume) via intra peritoneal route or per os in a volume of 10 ml/kg, and the other batches of 10 mice were given the products to be tested dissolved in the solvent (10 or 30 mg/kg in a volume of 10 ml/kg ip ou po). Individual feed troughs filled with food (A04, UAR, France) were weighed then placed in the cages, exactly 30 min or 60.min after treating the mice ip or per os, respectively. The feed troughs were then weighed 1 h, 2 h, 3 h, 4 h and when applicable 6 h and 24 h after placing the feed troughs in the cages. Food consumptions are expressed in grams, as a mean±standard error (S.E.M). (n=10). Statistical analysis used ANOVA followed by Dunnett's multiple comparison test. The level of significance is obtained for p<0.05.

| SMILES | IC50 [1] | Kb [2] | Accumulated inhibition of food intake after ip administering of 30 mg/kg, 0-1 h ([3]; 0-1 h) | Accumulated inhibition of food intake after ip administering of 30 mg/kg, 0-2 h ([3]; 0-2 h) | Accumulated inhibition of food intake after ip administering of 30 mg/kg, 0-3 h ([3]; 0-3 h) | Accumulated inhibition of food intake after ip administering of 30 mg/kg, 0-4 h ([3]; 0-4 h) |
| --- | --- | --- | --- | --- | --- | --- |
| CCC(CC)NC(=O)Nc1ccc(Oc2cnc(NC(=O)c3ccc(OC4CCN(C(C)C)CC4)cc3)s2)c(OC)c1 [Example 2, N-(5-{4-[3-(1-Ethyl-propyl)-ureido]-2-methoxy-phenoxy}-thiazol-2-yl)-4-(1-isopropyl-piperidin-4-yloxy)-benzamide] | 15 nM | 10 nM | – | – | – | – |
| CCOc1cc(NC(=O)NC(CC)CC)ccc1Oc1ccc(NC(=O)c2ccc(O[C@H]3C[C@H]4CC[C@@H](C3)N4C)cc2)cc1 [Example 40, N-(4-{2-Ethoxy-4-[3-(1-ethyl-propyl)-ureido]-phenoxy}-phenyl)-4-(8-methyl-8-aza-bicyclo[3.2.1]oct-(3-endo)-yloxy)-benzamide] | 1.7 nM | 2.24 nM | – | – | – | – |
| CCCCN1CCC(Oc2ccc(C(=O)Nc3ccc(Oc4cc(F)c(NC(=O)NC(CC)CC)cc4OC)cc3)cc2C)CC1 [Example 312, 4-(1-Butyl-piperidin-4-yloxy)-N-(4-{4-[3-(1-ethyl-propyl)-ureido]-5-fluoro-2-methoxy-phenoxy}-phenyl)-3-methyl-benzamide] | – | – | 42%* | 21% | 33%** | 27%* |
